In patent publication US9790496B2, “Microrna compounds and methods for modulating MIR-21 activity” (Regulus Therapeutics, Inc., priority 2011, dated 2017):

How the values were obtained:
[1] = test system: miR-21; assay: miR-21 luciferase sensor assay in Hela cells; assay type: cell-based
Protocol: The compounds were assessed for miR-21 inhibitory activity in a luciferase assay. A microRNA luciferase sensor construct was engineered using pGL3-MCS2 (Promega). The construct was introduced into Hela cells to test the ability of anti-miR compounds to inhibit activity of miR-21. In this assay, miR-21 present in the Hela cells binds to its cognate site(s) in the luciferase sensor construct, and suppresses luciferase expression. When the appropriate anti-miR is introduced into the cells, it binds to miR-21 and relieves suppression of luciferase expression. Thus, in this assay anti-miRs that are effective inhibitors of miR-21 expression will cause an increase in luciferase expression.
Day 1: Hela cells (ATCC), stably transfected with a luciferase construct engineered to contain a sequence complementary of miR-21, were seeded in T-170 flasks (BD Falcon) at 3.5*10^6 cells/flask. Hela cells were grown in Dulbecco's Modified Eagle Medium with High Glucose (Invitrogen).
Day 2: Each flask of Hela cells was transfected with 0.5 ug of a phRL sensor plasmid (Promega) expressing Renilla to be used in normalization. Hela cells were transfected using 20 ul Lipofectamine 2000/flask (Invitrogen). After 4 hours of transfection, cells were washed with PBS and trypsinized. Hela cells were plated at 40 k/well in 24 well plates (BD Falcon) and left overnight.
Day 3: Hela cells were transfected with anti-miRs using Lipofectin (Invitrogen) at 2.5 ul Lipofectin/100 nM ASO/ml Opti-MEM I Reduced Serum Medium (Invitrogen) for 4 hours. After ASO transfection, Hela cells were refed with Dulbecco's Modified Eagle Medium with High Glucose (Invitrogen).
Day 4: Hela cells are passively lysed and luciferase activity measured using the Dual-Luciferase Reporter Assay System (Promega).
The luciferase assay was performed to test the ability of anti-miRs with the nucleoside patterns described herein to inhibit the activity of miR-21. Results were compared to a ‘mock’ treatment, in which cells received no anti-miR treatment. The experiment was repeated and results of two experimental replicates are shown in the following Table B, as the luciferase value normalized to beta-galactosidase activity.
The luciferase assay was performed as described herein to test the ability of anti-miRs in Table F to inhibit the activity of miR-21. Results were compared to a ‘mock’ treatment, in which cells received no anti-miR treatment. The experiment was repeated and results of two experimental replicates are shown in the following Table D, as fold change in luciferase value relative to the mock treatment.

[2] = test system: ischemia reperfusion injury/nephrectomy (IR/Nx) model; assay: Ischemia reperfusion injury/nephrectomy (IR/Nx) model: urinary albumin to creatinine ratio; assay type: in vivo, mouse
Text: An ischemia reperfusion injury/nephrectomy (IR/Nx) model is created in the mouse through temporary unilateral clamping of an artery in one kidney, which leads to tubule damage, inflammation, and fibrosis, followed by removal of the second kidney at a later timepoint. In this model, the acute kidney dysfunction phase is useful to test candidate agents for the treatment of acute kidney injury (i.e. up to about the first 5 days), and the later phases of kidney dysfunction are useful to model chronic fibrosis (i.e. after about the first 5 days).
Anti-miR-21 compounds were tested in the IR/Nx model. 25109, a 6-base mismatch to miR-21, was used as a control compound ([…]; where nucleosides not followed by a subscript indicate β-deoxynucleosides; nucleosides followed by a subscript “E” indicate 2′-MOE nucleosides; nucleosides followed by a subscript “S” indicate S-cEt nucleosides; and all internucleoside linkages are phosphorothioate internucleoside linkages).
Unilateral IR was induced for a period of 30 minutes. Treatment groups were as follows: sham IR procedure; IR with PBS administered subcutaneously; IR with mismatched control 25109 administered subcutaneously at a dose of 20 mg/kg; IR with anti-miR-21 compound 25070 administered subcutaneously at a dose of 20 mg/kg; and IR with anti-miR-21 compound 25923 administered subcutaneously at a dose of 20 mg/kg. PBS or anti-miR was administered on days 2, 3, 4, and 8 following IR. On day 8, the healthy kidney was removed by nephrectomy from each animal, and animals were sacrificed on day 9. Just prior to sacrifice, urine was collected by direct bladder puncture.
Urinary albumin to creatinine ratio was measured in the urine from each mouse. […] The geometric mean of the albumin to creatinine ratio in each group of mice was 16 μgAlb/mgCr (nephrectomy-only control), 127 μgAlb/mgCr (IR/Nx, PBS control), 140 μgAlb/mgCr (IR/Nx, 25109 control), 40 μgAlb/mgCr (IR/Nx, 25070), and 31 μgAlb/mgCr (IR/Nx, 25923). Blood urea nitrogen and serum creatinine levels were similar across all IR/Nx mice, and were elevated relative to nephrectomy-only control mice (data not shown).

[3] = test system: collagen 1A1 and collagen 3A1 expression in kidney, unilateral ureteral obstruction (UUO) model; assay: UUO model of kidney fibrosis: kidney collagen 1A1 and collagen 3A1 expression by real-time PCR; assay type: in vivo, mice; details: UUO; 20 mg/kg at days -5, -3, +3; kidney at day 10
Protocol: Unilateral ureteral obstruction (UUO) is a well-established experimental model of renal injury leading to interstitial fibrosis, and thus is used as an experimental model that is reflective of human kidney disease. UUO is induced by surgically ligating a single ureter. As fibrosis is characterized by an increase in collagen, the presence and extent of kidney fibrosis may be determined by measuring collagen content. Both collagen 1A1 (Col 1A1) and collagen 3A1 (Col 3A1) are measured to assess collagen content. Kidney fibrosis may be visualized by staining tissue samples with picro-sirius red to detect increases in collagen content. Kidney fibrosis may also be observed by measuring the amount of hydroxyproline, which is a major component of collagen, in a sample.
The cEt-containing anti-miR-21 compounds found to be active in the luciferase assay were tested in the UUO model of kidney fibrosis. 25919 comprising 2′-MOE and 2′-fluoro modifications is known to inhibit miR-21 activity in vivo and was included as a positive control. Groups of 8 animals each were treated as follows: UUO only, UUO with PBS, or UUO with anti-miR-21 compound. Relative to the day of the UUO procedure, PBS or anti-miR-21 compound was administered at days −3, −1, and +5. Anti-miR-21 compounds were administered at a dose of 20 mg/kg. As the anti-miR compounds were administered prior to the UUO procedure, this dosing regimen is considered a prophylactic treatment. At day 11, animals were sacrificed and kidney was isolated for measurement of collagen expression. Collagen expression was measured by real-time PCR and normalized first to GAPDH and then to the sham control animals. […]

[4] = In vivo stability: compound in kidney tissue after administration to mice; details: kidney tissue after administration to mice; for in vivo (kidney) N-1(%): compound lacking one terminal nucleoside; for in vivo (kidney) N(%): full-length compound
[5] = Ex vivo liver homogenate stability assay (HPLC-TOF MS); details: 24 hours, 37° C.; for ex vivo (liver) N %↓: 5 μM oligonucleotide in liver homogenate (50 mg tissue per ml), decrease of full-length compound; for ex vivo (liver) % N-1 / ex vivo (liver) % Endo: 5 μM oligonucleotide in liver homogenate; for ex vivo (liver) % N-1: compound lacking one terminal nucleoside; for ex vivo (liver) % Endo: endonuclease products

Row | Sequence | inhibition of miR-21 in the luciferase assay (in words) ([1]; Hela cells) | fold change in luciferase value relative to the mock treatment ([1]; concentration of anti-miR compound 0.2 (unit not given)) | fold change in luciferase value relative to the mock treatment ([1]; concentration of anti-miR compound 0.6 (unit not given)) | fold change in luciferase value relative to the mock treatment ([1]; concentration of anti-miR compound 1.9 (unit not given)) | fold change in luciferase value relative to the mock treatment ([1]; concentration of anti-miR compound 5.6 (unit not given)) | fold change in luciferase value relative to the mock treatment ([1]; concentration of anti-miR compound 16.7 (unit not given)) | fold change in luciferase value relative to the mock treatment ([1]; concentration of anti-miR compound 50.0 (unit not given)) | reduction in urinary albumin to creatinine ratio (in words) ([2]; s.c. 20 mg/kg on days 2, 3, 4, 8) | geometric mean of the urinary albumin to creatinine ratio ([2]; s.c. 20 mg/kg on days 2, 3, 4, 8, urine day 9, PBS control 127, nephrectomy-only 16) [μgAlb/mgCr] | reduction of collagen 1A1 expression (in words, FIG. 2A) [3] | reduction of collagen 3A1 expression (in words, FIG. 2B) [3] | in vivo (kidney) N-1(%) [4] [%] | in vivo (kidney) N(%) [4] [%] | ex vivo (liver) N %↓ [5] [%] | ex vivo (liver) % N-1 [5] [%] | ex vivo (liver) % Endo [5] [%]
1 | AECSATCSAGTCSTGAUSAAGCSTAS (ACATCAGTCTGATAAGCTA; modified nucleosides coded in name, code key not given here) [Compound 25923, 25070 variant: 3'-terminal nucleoside is a cEt nucleoside rather than 2'-MOE nucleoside] | demonstrated inhibition of miR-21 in a dose-dependent manner | 1.06 | 1.01 | 1.10 | 5.18 | 11.34 | 10.81 | statistically significant reductions | 31 | reduced collagen 1A1 and collagen 3A1 expression by a statistically significant amount | reduced collagen 1A1 and collagen 3A1 expression by a statistically significant amount | – | – | – | – | –
2 | AECSATCSAGTCSTGAUSAAGCSUSAS (ACATCAGTCTGATAAGCTA; modified nucleosides coded in name, code key not given here) [Compound 25221] | – | – | – | – | – | – | – | – | – | reduced collagen 1A1 and collagen 3A1 expression by a statistically significant amount | reduced collagen 1A1 and collagen 3A1 expression by a statistically significant amount | 4 ± 1 | 76 ± 4 | 3 | 0 | 3
3 | AECSATCSASGTCSUSGAUSASAGCSUSAE (ACATCAGTCTGATAAGCTA; modified nucleosides coded in name, code key not given here) [Compound 25220] | – | – | – | – | – | – | – | – | – | reduced collagen 1A1 and collagen 3A1 expression by a statistically significant amount | reduced collagen 1A1 and collagen 3A1 expression by a statistically significant amount | 16 ± 6 | 67 ± 16 | 3 | 0 | 3
